In PMC3914206:

Key:
Format in all cases: binding
Parameters in all cases: KINOMEscan: ABL1(F317L)-phosphorylated / KINOMEscan: ABL1(H396P)-nonphosphorylated / KINOMEscan: ABL1(H396P)-phosphorylated / KINOMEscan: ABL1(M351T)-phosphorylated / KINOMEscan: ABL1(T315I)-phosphorylated / KINOMEscan: ABL1-nonphosphorylated / KINOMEscan: ABL1-phosphorylated / KINOMEscan: ACVR2A / KINOMEscan: ACVR2B / KINOMEscan: ADCK3 / KINOMEscan: ADCK4 / KINOMEscan: AKT1 / KINOMEscan: AKT3 / KINOMEscan: ALK / KINOMEscan: ARK5 / KINOMEscan: AURKA / KINOMEscan: AURKC / KINOMEscan: BIKE / KINOMEscan: BMPR1A / KINOMEscan: BMPR1B / KINOMEscan: BMX / KINOMEscan: BRK / KINOMEscan: BRSK1 / KINOMEscan: BRSK2 / KINOMEscan: CAMK1 / KINOMEscan: CAMK1D / KINOMEscan: CAMK1G / KINOMEscan: CAMK2A / KINOMEscan: CAMK2B / KINOMEscan: AAK1 / KINOMEscan: CAMK2D / KINOMEscan: CAMK2G / KINOMEscan: ABL1(F317I)-nonphosphorylated / KINOMEscan: ABL1(F317I)-phosphorylated / KINOMEscan: ABL1(F317L)-nonphosphorylated: unit: % Ctrl
Settings in all cases: Compound Concentration 10 µM
panel of 442 kinases [1] = biological target: T1, panel of 442 kinases (Homo sapiens, UniProt P49336)
T1 construct: purchased KINOMEscan
T1 sequence (P49336 whole entry): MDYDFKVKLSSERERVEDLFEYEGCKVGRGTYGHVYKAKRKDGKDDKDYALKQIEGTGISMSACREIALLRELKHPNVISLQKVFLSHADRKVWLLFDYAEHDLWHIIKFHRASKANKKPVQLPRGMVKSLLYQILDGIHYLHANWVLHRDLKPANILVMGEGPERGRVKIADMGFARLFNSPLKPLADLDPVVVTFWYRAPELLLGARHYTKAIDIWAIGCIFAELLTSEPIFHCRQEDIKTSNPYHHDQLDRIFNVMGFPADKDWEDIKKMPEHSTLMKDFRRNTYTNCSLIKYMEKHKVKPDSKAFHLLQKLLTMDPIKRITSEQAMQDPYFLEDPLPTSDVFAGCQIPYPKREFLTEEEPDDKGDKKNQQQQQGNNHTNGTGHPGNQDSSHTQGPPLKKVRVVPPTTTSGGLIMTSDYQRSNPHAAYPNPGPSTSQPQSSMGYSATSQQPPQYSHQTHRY
Excerpt: (§1) We assessed the selectivity of members of this scaffold using the KINOMEscan methodology across a near comprehensive panel of 442 kinases [[18,27]].

panel of 442 kinases [2] = biological target: T2, panel of 442 kinases (Homo sapiens, UniProt Q96Q40)
T2 construct: purchased KINOMEscan
T2 sequence (Q96Q40 whole entry): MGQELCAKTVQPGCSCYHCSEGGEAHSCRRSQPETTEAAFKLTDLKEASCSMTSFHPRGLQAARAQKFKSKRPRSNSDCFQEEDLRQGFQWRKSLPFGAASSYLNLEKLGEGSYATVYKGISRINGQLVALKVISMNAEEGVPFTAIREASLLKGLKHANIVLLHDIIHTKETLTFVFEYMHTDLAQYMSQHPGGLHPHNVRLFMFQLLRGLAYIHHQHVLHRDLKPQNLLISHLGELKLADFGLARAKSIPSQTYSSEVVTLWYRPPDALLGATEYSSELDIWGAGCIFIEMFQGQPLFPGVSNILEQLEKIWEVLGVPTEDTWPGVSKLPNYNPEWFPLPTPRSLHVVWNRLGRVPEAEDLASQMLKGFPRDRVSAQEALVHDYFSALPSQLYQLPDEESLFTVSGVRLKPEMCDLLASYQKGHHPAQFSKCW
Excerpt: as §1

panel of 442 kinases [3] = biological target: T3, panel of 442 kinases (Homo sapiens, UniProt Q6DT37)
T3 construct: purchased KINOMEscan
T3 sequence (Q6DT37 whole entry): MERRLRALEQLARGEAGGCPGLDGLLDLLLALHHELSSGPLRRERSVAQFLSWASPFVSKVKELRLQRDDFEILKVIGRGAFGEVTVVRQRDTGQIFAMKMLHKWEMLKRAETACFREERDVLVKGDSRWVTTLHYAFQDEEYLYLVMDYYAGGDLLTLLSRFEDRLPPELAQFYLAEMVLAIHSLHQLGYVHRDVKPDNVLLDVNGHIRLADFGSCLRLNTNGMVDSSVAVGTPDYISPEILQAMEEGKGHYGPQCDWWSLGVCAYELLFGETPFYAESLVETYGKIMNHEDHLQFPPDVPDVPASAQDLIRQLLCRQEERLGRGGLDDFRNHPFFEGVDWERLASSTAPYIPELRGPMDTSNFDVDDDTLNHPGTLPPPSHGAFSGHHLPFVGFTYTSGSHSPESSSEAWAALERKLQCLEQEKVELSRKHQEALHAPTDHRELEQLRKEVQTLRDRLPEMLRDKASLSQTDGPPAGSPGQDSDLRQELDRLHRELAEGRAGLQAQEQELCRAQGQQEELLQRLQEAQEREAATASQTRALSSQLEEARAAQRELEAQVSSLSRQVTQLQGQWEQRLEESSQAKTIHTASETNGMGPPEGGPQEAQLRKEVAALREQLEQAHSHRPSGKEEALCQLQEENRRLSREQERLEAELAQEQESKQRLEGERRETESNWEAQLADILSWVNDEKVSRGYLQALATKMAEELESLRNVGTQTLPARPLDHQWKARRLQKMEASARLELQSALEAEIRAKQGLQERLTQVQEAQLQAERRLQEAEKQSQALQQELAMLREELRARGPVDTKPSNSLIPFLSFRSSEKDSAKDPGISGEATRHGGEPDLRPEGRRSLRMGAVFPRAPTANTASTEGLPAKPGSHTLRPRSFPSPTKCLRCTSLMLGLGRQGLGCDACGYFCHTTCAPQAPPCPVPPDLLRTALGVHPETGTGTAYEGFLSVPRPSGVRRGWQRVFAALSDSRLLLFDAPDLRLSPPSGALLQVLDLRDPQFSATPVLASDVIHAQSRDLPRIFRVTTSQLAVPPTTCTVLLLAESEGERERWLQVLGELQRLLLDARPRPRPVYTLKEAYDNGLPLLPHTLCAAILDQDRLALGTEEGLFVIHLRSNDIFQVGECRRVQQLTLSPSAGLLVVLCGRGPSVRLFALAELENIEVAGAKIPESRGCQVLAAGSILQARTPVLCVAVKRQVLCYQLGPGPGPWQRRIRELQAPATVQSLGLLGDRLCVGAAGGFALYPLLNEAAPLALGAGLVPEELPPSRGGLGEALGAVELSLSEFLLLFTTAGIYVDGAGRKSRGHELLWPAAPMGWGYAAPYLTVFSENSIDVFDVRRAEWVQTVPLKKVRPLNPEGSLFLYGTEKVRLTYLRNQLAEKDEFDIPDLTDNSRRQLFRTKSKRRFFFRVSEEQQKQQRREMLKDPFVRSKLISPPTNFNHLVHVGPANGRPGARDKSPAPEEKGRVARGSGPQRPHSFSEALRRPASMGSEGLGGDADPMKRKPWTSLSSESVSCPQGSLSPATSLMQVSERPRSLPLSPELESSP
Excerpt: as §1

panel of 442 kinases [4] = biological target: T4, panel of 442 kinases (Homo sapiens, UniProt Q13705)
T4 construct: purchased KINOMEscan
T4 sequence (Q13705 19-512): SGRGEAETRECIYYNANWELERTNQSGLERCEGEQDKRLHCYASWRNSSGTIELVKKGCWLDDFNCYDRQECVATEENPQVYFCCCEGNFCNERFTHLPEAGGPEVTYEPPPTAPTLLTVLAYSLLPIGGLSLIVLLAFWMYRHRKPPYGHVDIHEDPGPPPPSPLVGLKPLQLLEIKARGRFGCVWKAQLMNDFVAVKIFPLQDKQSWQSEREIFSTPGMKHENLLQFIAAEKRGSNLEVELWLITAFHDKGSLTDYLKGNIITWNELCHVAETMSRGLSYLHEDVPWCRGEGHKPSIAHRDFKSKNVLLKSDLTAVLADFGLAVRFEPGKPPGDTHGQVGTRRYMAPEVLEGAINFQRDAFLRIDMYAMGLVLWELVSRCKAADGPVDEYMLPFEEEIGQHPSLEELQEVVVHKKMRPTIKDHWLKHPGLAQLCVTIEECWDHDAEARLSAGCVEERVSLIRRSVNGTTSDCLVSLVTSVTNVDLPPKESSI
Excerpt: as §1

Compound | KINOMEscan: CDK8 (panel of 442 kinases [1]) | KINOMEscan: PFTAIRE2 (panel of 442 kinases [2]) | KINOMEscan: DMPK2 (panel of 442 kinases [3]) | KINOMEscan: ACVR2B (panel of 442 kinases [4])
COc1cc(C(=O)N2CCC(N3CCN(C)CC3)CC2)ccc1Nc1ncc2c(n1)N1CCc3cccc(c31)C(=O)N2C [Compound 24] | 91 | – | – | –
CCOc1cc(C(=O)N2CCC(N3CCN(C)CC3)CC2)ccc1Nc1ncc2c(n1)N(C1CCCC1)c1ccccc1C(=O)N2C [Compound 26] | 95 | 100 | 100 | 100
COc1cc(C(=O)N2CCC(N3CCN(C)CC3)CC2)ccc1Nc1ncc2c(n1)N(C1CCCC1)c1ccccc1C(=O)N2C [Compound 25, 11-cyclopentyl-2-((2-methoxy-4-(4-(4-methylpiperazin-1-yl)piperidine-1-carbonyl)phenyl)amino)-5-methyl-5H-benzo[e]pyrimido[5,4-b][1,4]diazepin-6(11H)-one] | 100 | 99 | 94 | 91
COc1cc(C(=O)N2CCC(N3CCN(C)CC3)CC2)ccc1Nc1ncc2c(n1)N(C)c1ccccc1C(=O)N2C [15 (LRRK2-IN-1)] | 100 | 100 | 100 | 100
